Results: PubChem BioAssay AID218 (DTP/NCI, 2004)
Values joined by “and” are separate entries in the source; they are usually repeats but may differ in a detail not shown here. Identical values can stand only once. Starred links: 1 amine or outer side, 2 acyl side, 3 side chain; linkers in the order of their positions; H or OH if unused. Positions of bridges follow the written chain, without caps; N, C: chain ends. Non-standard residues stand in square brackets, D forms with d. Residues, ends and D or L forms follow the SMILES beside them. Chains are numbered I, II in the order given. Actinocin(9to1) = Cc1c2oc3c(C)ccc(C(=O)[*:1])c3nc-2c(C(=O)[*:2])c(N)c1=O; aThr = C[C@H](O)[C@H](N)C(=O)O; NMeV = CN[C@H](C(=O)O)C(C)C; Sar = CNCC(=O)O

System: C57BL/6 mice, Adenocarcinoma 755 sc, tumor weight T/C
Experiment: NCI In Vivo Anticancer Drug Screen. Data for tumor model Adenocarcinoma 755 (subcutaneous) in C57BL/6 mice
Conditions: endpoint: mean tumor weight, higher = larger tumour
Description: The antitumor activity of compounds was measured in mice bearing transplantable tumors. Survival or tumor size were measured and the results are expressed as the measurement made in the treated group (T) divided by the measurement made in the vehicle treated control group (C). The tumor model used in this assay is Adenocarcinoma 755 (subcutaneous) in C57BL/6 mice

[1] = dose: 6.25 mg/kg/injection, schedule: Q01DX011 (ip), vehicle: saline
[2] = dose: 25.0 mg/kg/injection, schedule: Q01DX011 (ip), vehicle: saline
[3] = dose: 50.0 mg/kg/injection, schedule: Q01DX011 (ip), vehicle: saline
[4] = dose: 250.0 mg/kg/injection, schedule: Q01DX011 (ip), vehicle: saline
[5] = dose: 500.0 mg/kg/injection, schedule: Q01DX011 (ip), vehicle: saline
[6] = dose: 1000.0 mg/kg/injection, schedule: Q01DX011 (ip), vehicle: saline
[7] = dose: 2000.0 mg/kg/injection, schedule: Q01DX011 (ip), vehicle: saline
[8] = dose: 75.0 mg/kg/injection, schedule: Q02DX006 (ip), vehicle: other
[9] = dose: 15.0 mg/kg/injection, schedule: Q01DX011 (ip), vehicle: carboxymethylcellulose (CMC)
[10] = dose: 100.0 mg/kg/injection, schedule: Q02DX006 (ip), vehicle: other
[11] = dose: 150.0 mg/kg/injection, schedule: Q01DX011 (ip), vehicle: saline

Q: What does the source list for O=P1(N(CCF)CCCl)NCCCO1 (configuration not stated)?
A: T/C [1]: 76 % of control; T/C (dose: 12.5 mg/kg/injection, schedule: Q01DX011 (ip), vehicle: saline): 94 % of control; T/C [2]: 66 % of control; T/C [3]: 88 % of control

Q: With Cn1cc(NC(=O)c2cc(NC(=O)CN=C(N)N)cn2C)cc1C(=O)NCCC(=N)N as the compound, how does the T/C (dose: 20.0 mg/kg/injection, schedule: Q02DX006 (ip), vehicle: water) read?
A: 95 % of control

Q: And the T/C (dose: 25.0 mg/kg/injection, schedule: Q02DX006 (ip), vehicle: water)?
A: 69 % of control

Q: What about the T/C (dose: 30.0 mg/kg/injection, schedule: Q02DX006 (ip), vehicle: water) of the same compound?
A: 31 % of control

Q: How did the T/C [4] turn out when CN(CC(=O)O)C(=N)N was run?
A: 105 % of control

Q: What about the T/C [5] of the same compound?
A: 110 % of control

Q: What about the T/C [6] of the same compound?
A: 57 % of control

Q: What about the T/C [7] of the same compound?
A: 102 % of control

Q: With S=c1nc[nH]c2n[nH]nc12 as the compound, how does the T/C (dose: 30.0 mg/kg/injection, schedule: Q02DX006 (ip), vehicle: other) read?
A: 70 % of control

Q: What about the T/C [8] of the same compound?
A: 14 % of control

Q: Which T/C (dose: 100.0 mg/kg/injection, schedule: Q01DX011 (ip), vehicle: carboxymethylcellulose (CMC)) does the source give for O=c1cn[nH]c(=O)[nH]1 here?
A: 159 % of control

Q: And the T/C (dose: 200.0 mg/kg/injection, schedule: Q01DX011 (ip), vehicle: carboxymethylcellulose (CMC))?
A: 110 % of control

Q: Clc1ccc(N2CCN(CCCN3CCN(c4cccc(Cl)c4)CC3)CC2)cc1 was tested. Which T/C (dose: 7.5 mg/kg/injection, schedule: Q01DX011 (ip), vehicle: carboxymethylcellulose (CMC)) did it give?
A: 43 % of control

Q: And the T/C [9]?
A: 38 % of control

Q: What about the T/C (dose: 30.0 mg/kg/injection, schedule: Q01DX011 (ip), vehicle: carboxymethylcellulose (CMC)) of the same compound?
A: 54 % of control

Q: What does the source list for CC1CN1P(=S)(N1CC1C)N1CC1C (configuration not stated)?
A: T/C (dose: 1.25 mg/kg/injection, schedule: Q01DX011 (ip), vehicle: saline): 67 % of control; T/C (dose: 2.5 mg/kg/injection, schedule: Q01DX011 (ip), vehicle: saline): 78 % of control; T/C (dose: 5.0 mg/kg/injection, schedule: Q01DX011 (ip), vehicle: saline): 91 % of control; T/C (dose: 10.0 mg/kg/injection, schedule: Q01DX011 (ip), vehicle: saline): 73 % of control

Q: Which T/C (dose: 5.0 mg/kg/injection, schedule: Q02DX006 (ip), vehicle: saline) does the source give for CC[N+](CC)(CC)CCO here?
A: 51 % of control

Q: What about the T/C (dose: 10.0 mg/kg/injection, schedule: Q02DX006 (ip), vehicle: saline) of the same compound?
A: 25 % of control

Q: And the T/C (dose: 15.0 mg/kg/injection, schedule: Q02DX006 (ip), vehicle: saline)?
A: 33 % of control

Q: Which results are given for CCSCCC(N)C(=O)O (configuration not stated)?
A: T/C [3]: 113 % of control; T/C [8]: 67 % of control; T/C (dose: 100.0 mg/kg/injection, schedule: Q01DX011 (ip), vehicle: saline): 67 % of control and 78 % of control; T/C [10]: 65 % of control; T/C [11]: 72 % of control

Q: For NNc1ncnc2nc[nH]c12, which T/C (dose: 30.0 mg/kg/injection, schedule: Q01DX011 (ip), vehicle: saline) is on record?
A: 67 % of control

Q: And the T/C (dose: 60.0 mg/kg/injection, schedule: Q01DX011 (ip), vehicle: saline)?
A: 34 % of control

Q: With CC(C)CNC(=S)N/N=C/c1ccccc1 as the compound, how does the T/C [8] read?
A: 70 % of control

Q: What about the T/C [10] of the same compound?
A: 94 % of control

Q: Which T/C [4] does the source give for CN1CC(=O)NC1=O here?
A: 49 % of control

Q: What about the T/C [5] of the same compound?
A: 68 % of control

Q: What about the T/C [6] of the same compound?
A: 41 % of control

Q: What about the T/C [7] of the same compound?
A: 70 % of control

Q: Which T/C (dose: 1.0 mg/kg/injection, schedule: Q01DX008 (iv), vehicle: saline) does the source give for Cn1c(N)nc2nc[nH]c2c1=S here?
A: 169 % of control

Q: What about the T/C (dose: 2.0 mg/kg/injection, schedule: Q01DX008 (iv), vehicle: saline) of the same compound?
A: 173 % of control

Q: And the T/C (dose: 4.0 mg/kg/injection, schedule: Q01DX008 (iv), vehicle: saline)?
A: 79 % of control

Q: And the T/C (dose: 32.0 mg/kg/injection, schedule: Q01DX008 (iv), vehicle: saline)?
A: 67 % of control

Q: What about the T/C (dose: 64.0 mg/kg/injection, schedule: Q01DX008 (iv), vehicle: saline) of the same compound?
A: 65 % of control

Q: Which results are given for CCOc1ccccc1C(=O)Nc1ccc(Br)cc1?
A: T/C (dose: 75.0 mg/kg/injection, schedule: Q01DX011 (ip), vehicle: saline): 94 % of control; T/C [11]: 98 % of control; T/C (dose: 300.0 mg/kg/injection, schedule: Q01DX011 (ip), vehicle: saline): 75 % of control; T/C (dose: 600.0 mg/kg/injection, schedule: Q01DX011 (ip), vehicle: saline): 51 % of control

Q: What does the source list for CS(=O)(=O)OCCCCOS(C)(=O)=O?
A: T/C (dose: 2.5 mg/kg/injection, schedule: Q01DX011 (ip), vehicle: carboxymethylcellulose (CMC)): 86 % of control; T/C (dose: 5.0 mg/kg/injection, schedule: Q01DX011 (ip), vehicle: carboxymethylcellulose (CMC)): 57 % of control; T/C (dose: 10.0 mg/kg/injection, schedule: Q01DX011 (ip), vehicle: carboxymethylcellulose (CMC)): 69 % of control; T/C (dose: 10.0 mg/kg/injection, schedule: Q02DX006 (ip), vehicle: other): 59 % of control; T/C (dose: 12.5 mg/kg/injection, schedule: Q02DX006 (ip), vehicle: other): 51 % of control; T/C [9]: 56 % of control; T/C (dose: 15.0 mg/kg/injection, schedule: Q02DX006 (ip), vehicle: other): 76 % of control; T/C (dose: 20.0 mg/kg/injection, schedule: Q01DX011 (ip), vehicle: carboxymethylcellulose (CMC)): 49 % of control; T/C (dose: 25.0 mg/kg/injection, schedule: Q01DX011 (ip), vehicle: carboxymethylcellulose (CMC)): 26 % of control

Q: Which T/C (dose: 9.0 mg/kg/injection, schedule: Q01DX011 (ip), vehicle: saline) does the source give for Cc1c2ccccc2c(C)c2c1ccc1ccccc12 here?
A: 44 % of control

Q: What about the T/C (dose: 19.0 mg/kg/injection, schedule: Q01DX011 (ip), vehicle: saline) of the same compound?
A: 19 % of control

Q: Which T/C (dose: 1.5 mg/kg/injection, schedule: Q01DX011 (ip), vehicle: saline) does the source give for CC(C)C(=O)OCC1OC(n2cnc3c(=S)nc(N)[nH]c32)C(OC(=O)C(C)C)C1OC(=O)C(C)C (configuration not stated) here?
A: 68 % of control

Q: And the T/C (dose: 3.0 mg/kg/injection, schedule: Q01DX011 (ip), vehicle: saline)?
A: 25 % of control

Q: How did the T/C [3] turn out when O=C(O)C(=O)CF was run?
A: 63 % of control

Q: Which results are given for CCc1c(CC(=O)O)c2cc(C)ccc2n1Cc1ccc(Cl)cc1?
A: T/C (dose: 1.56 mg/kg/injection, schedule: Q01DX011 (ip), vehicle: saline): 79 % of control; T/C (dose: 3.13 mg/kg/injection, schedule: Q01DX011 (ip), vehicle: saline): 66 % of control; T/C [1]: 109 % of control; T/C [2]: 10 % of control; T/C [3]: 22 % of control

Q: Which T/C (dose: 0.03 mg/kg/injection, schedule: Q01DX011 (ip), vehicle: saline) does the source give for Cc1c2oc3c(C)ccc(C(=O)N[C@@H]4C(=O)N[C@H](C(C)C)C(=O)N5CCC[C@H]5C(=O)N(C)CC(=O)N(C)[C@@H](C(C)C)C(=O)O[C@H]4C)c3nc-2c(C(=O)N[C@@H]2C(=O)N[C@H](C(C)C)C(=O)N3CCC[C@H]3C(=O)N(C)CC(=O)N(C)[C@@H](C(C)C)C(=O)O[C@H]2C)c(N)c1=O (I: [aThr][dV]P[Sar][NMeV] / II: [aThr][dV]P[Sar][NMeV]; ester I:1-I:C, II:1-II:C; linker I:N-II:N via Actinocin(9to1)) here?
A: 3 % of control
